# Source: publication PMC6297231 (Nature Communications, 2018)
# pEC50, pIC50, pKi: −log10 of the molar value. Read-outs that look alike come from different tables or passages of the source.
# What was measured:
# Bcl-2 = biological target: T1, Bcl-2 (Homo sapiens, UniProt P10415); test: TR-FRET binding assay
# T1 construct: C-Terminal 6His-tagged Bcl-2 protein from Bcl-2 (M1-F212); made in house; host or cells: E. coli
# Source text: (§1) N-terminal GST-tagged-Mcl-1 protein from Mcl-1 (E171-G327), N-terminal GST-tagged Bcl-xL protein from Bcl-xL (1-209), N-Terminal 6His-tagged Bfl-1 protein from Bfl-1 (M1-K151), N-Terminal 6His-tagged Bcl-w protein from Bcl-w (M1-R171), and C-Terminal 6His-tagged Bcl-2 protein from Bcl-2 (M1-F212) were expressed as a tagged fusion protein in E. coli and subsequently purified via Glutathione Sepharose-affinity or Ni-NTA resin purification, and size-exclusion chromatography.
# (§2) For TR-FRET, tagged fusion proteins were incubated with a Europium-labeled antibody and a HyLite Fluor 647-labeled peptide, or a biotin-labeled peptide with a streptavidin-labeled ulight fluorophore allowing the assembly of donor and acceptor dye pairs for use in protein-binding assays.
# (§3) The reaction final concentrations for Mcl-1 were 1.5 nM GST-Mcl-1, 0.5 nM LanthaScreen Eu tagged GST antibody (LifeTechnologies cat#PV5594), and 4 nM HyLite Fluor 647-labeled Bim peptide C (Hilyte647 C2 Maleimide)-[…]; for Bcl-xl were 2 nM GST-Bcl-xl, 2 nM LanthaScreen Eu-tagged GST antibody, and 10 nM HyLite Fluor 647-labeled BAK peptide C(Hilyte647 C2 Maleimide)-[…]; for Bfl-1 were 4 nM His-Bfl-1, 0.5 nM LanthaScreen Eu-tagged HIS antibody (PerkinElmer cat#AD0205), and 10 nM HyLite Fluor 647-labeled BIM peptide C(Hilyte647-C2-Maleimide)-[…]; for Bcl-2 and Bcl-w: 2 nM His-Bcl-2, or 2 nM His-Bcl-w, with 0.5 nM LanthaScreen Eu-tagged HIS antibody, 10 nM biotin-labeled Bim peptide (Biotin-lc-[…]), and 2.4 nM a streptavidin labeled ULight Fluorophore (PerkinElmer cat#TRF0102-D). Reactions were incubated at 24 °C for 120–180 min before reading on a Tecan (InfiniteM1000 spectrofluorometer) with excitation at 340 nm and emission at […] and 665 nm. Ratio of fluorescent emission intensity at 665–620 nm was calculated for each reaction (equation 1). Percent inhibition was calculated based upon min (control compound) vs. max (DMSO) according to Eq. (2) and the IC50 was derived the smart fit curve (Genedata screener) of % inhibition vs. concentration. Ki values were calculated from Eq. […]
# Bcl-w = biological target: T2, Bcl-w (Homo sapiens, UniProt Q92843); test: TR-FRET binding assay
# T2 construct: N-Terminal 6His-tagged Bcl-w protein from Bcl-w (M1-R171); made in house; host or cells: E. coli
# T2 sequence (Q92843 1-171): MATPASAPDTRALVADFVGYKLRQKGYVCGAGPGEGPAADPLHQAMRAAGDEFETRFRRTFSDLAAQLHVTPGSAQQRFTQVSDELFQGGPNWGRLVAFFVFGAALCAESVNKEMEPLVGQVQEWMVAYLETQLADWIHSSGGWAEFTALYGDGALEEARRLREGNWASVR
# Source text: as §1, §2, §3
# Bcl-xL = Bcl-xL (Homo sapiens, UniProt Q07817); test: TR-FRET binding assay
# Bcl-xL, sequence (Q07817 1-209): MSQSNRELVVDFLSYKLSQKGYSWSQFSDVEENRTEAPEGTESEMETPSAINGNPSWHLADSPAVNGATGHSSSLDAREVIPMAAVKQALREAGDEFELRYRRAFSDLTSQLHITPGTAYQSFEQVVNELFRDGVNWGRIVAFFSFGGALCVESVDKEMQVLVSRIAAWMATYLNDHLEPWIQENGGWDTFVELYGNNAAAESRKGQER
# Source text: as §1, §2, §3
# Bfl-1 = biological target: T3, Bfl-1 (Homo sapiens, UniProt Q16548); test: TR-FRET binding assay
# T3 construct: N-Terminal 6His-tagged Bfl-1 protein from Bfl-1 (M1-K151); made in house; host or cells: E. coli
# T3 sequence (Q16548 1-151): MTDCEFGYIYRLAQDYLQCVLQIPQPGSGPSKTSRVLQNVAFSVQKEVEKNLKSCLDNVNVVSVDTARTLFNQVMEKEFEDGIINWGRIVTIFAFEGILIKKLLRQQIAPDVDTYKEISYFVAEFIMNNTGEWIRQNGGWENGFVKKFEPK
# Source text: as §1, §2, §3
# KMS26 = test: Cell viability assay; type: cell-based; settings: KMS-26, 24 h; KMS26 (MM); read-out: AZD5991 24h GI50
# Procedure: (§4) Cells were plated at 3000 cells/well in 384-well white plates in corresponding cell growth media. […] Caspase-3/7 activation was subsequently determined using a Caspase-Glo 3/7 Reagent (Promega) and viability was assayed using the CellTiter-Glo Reagent (Promega) as described in manufacturer’s instructions. Dose–response curves for caspase-3/7 activation and viability were plotted and analyzed (including EC50 and GI50 determination) using GraphPad Prism.
# U266B1 = test: Cell viability assay; type: cell-based; settings: 24 h; U266B1 (MM); read-out: AZD5991 24h GI50
# Procedure: as §4
# KG1a = test: Cell viability assay; type: cell-based; settings: Homo sapiens, KG-1a, 24 h; KG1a (AML); read-out: AZD5991 24h GI50
# Procedure: as §4
# OCIAML5 = test: Cell viability assay; type: cell-based; settings: Homo sapiens, OCI-AML-5, 24 h, read-out: AZD5991 24h GI50
# Procedure: as §4
# Daudi = test: Cell viability assay; type: cell-based; settings: Homo sapiens, 24 h; Daudi (NHL); read-out: AZD5991 24h GI50
# Procedure: as §4
# U2932 = test: Cell viability assay; type: cell-based; settings: Homo sapiens, 24 h; U2932 (NHL); read-out: AZD5991 24h GI50
# Procedure: as §4
# H1734 = test: Cell viability assay; type: cell-based; settings: Homo sapiens, NCI-H1734, 24 h; H1734 (Lung); read-out: AZD5991 24h GI50
# Procedure: as §4
# H2122 = test: Cell viability assay; type: cell-based; settings: Homo sapiens, NCI-H2122, 24 h; H2122 (Lung); read-out: AZD5991 24h GI50
# Procedure: as §4
# H23 = test: Cell viability assay; type: cell-based; settings: Homo sapiens, NCI-H23, 24 h; H23 (Lung); read-out: AZD5991 24h GI50
# Procedure: as §4
# LUDLU1 = test: Cell viability assay; type: cell-based; settings: LUDLU-1, 24 h; LUDLU1 (Lung); read-out: AZD5991 24h GI50
# Procedure: as §4
# SKLU1 = test: Cell viability assay; type: cell-based; settings: Homo sapiens, SK-LU-1, 24 h; SKLU1 (Lung); read-out: AZD5991 24h GI50
# Procedure: as §4
# HCC1954 = test: Cell viability assay; type: cell-based; settings: Homo sapiens, 24 h; HCC1954 (Breast); read-out: AZD5991 24h GI50
# Procedure: as §4
# MDAMB468 = test: Cell viability assay; type: cell-based; settings: Homo sapiens, MDA-MB-468, 24 h; MDAMB468 (Breast); read-out: AZD5991 24h GI50
# Procedure: as §4
# U2OS = test: Cell viability assay; type: cell-based; settings: Homo sapiens, 24 h; U2OS (Others); read-out: AZD5991 24h GI50
# Procedure: as §4
# OCIAML3 = test: Caspase-3/7 activation assay; type: cell-based; settings: Homo sapiens, OCI-AML-3, 6 h
# Procedure: as §4
# T1 sequence (P10415 1-212): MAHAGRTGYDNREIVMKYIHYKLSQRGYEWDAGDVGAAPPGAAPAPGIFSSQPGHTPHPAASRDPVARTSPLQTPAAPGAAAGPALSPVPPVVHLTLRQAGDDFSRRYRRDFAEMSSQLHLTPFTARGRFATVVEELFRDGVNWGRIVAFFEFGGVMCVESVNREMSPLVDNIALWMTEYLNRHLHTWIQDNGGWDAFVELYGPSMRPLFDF
smiles,measurement,setting,value
"Cc1c2c(nn1C)CSCc1cc(n(C)n1)CSc1cc(c3ccccc3c1)OCCCc1c(C(=O)O)n(C)c3c-2c(Cl)ccc13 (atropisomer, axis not shown; (Ra)) [(Ra)-7]",pIC50,Bcl-2; FRET,4.70
same,pKi,Bcl-2; calculated from FRET IC50,5.17
same,pIC50,Bcl-w; FRET,4.31
same,pKi,Bcl-w; calculated from FRET IC50,4.60
same,pIC50,Bcl-xL; FRET,4.44
same,pKi,Bcl-xL; calculated from FRET IC50,4.74
same,pIC50,Bfl-1; FRET,4.62
same,pKi,Bfl-1; calculated from FRET IC50,4.92
same,GI50,KMS26,0.141 µM
same,GI50,U266B1,> 30 µM
same,GI50,KG1a,1.43 µM
same,GI50,OCIAML5,11 µM
same,GI50,Daudi,0.133 µM
same,GI50,U2932,15.5 µM
same,GI50,H1734,13.8 µM
same,GI50,H2122,18.7 µM
same,GI50,H23,0.122 µM
same,GI50,LUDLU1,0.991 µM
same,GI50,SKLU1,29.9 µM
same,GI50,HCC1954,0.756 µM
same,GI50,MDAMB468,0.54 µM
same,GI50,U2OS,20.6 µM
same,pEC50,"OCIAML3; read-out: 6h caspase EC50, OCIAML3, single agent",< 6.48
same,pEC50,"OCIAML3; read-out: AZD5991 6h EC50, OCIAML3 (AML), caspase 3/7 activation",6.11
